# Results published in ChEMBL document CHEMBL1126915, “Solvent-dependent conformation and hydrogen-bonding capacity of cyclosporin A: evidence from partition coefficients and molecular dynamics simulations” (J Med Chem, 1993).
# Legend:
# Details in all cases: octanol/water
# [1] = physchem
# Description: Partition coefficient (logP)
# [2] = Partition coefficient of compound was measured in heptane/water system
# [3] = physchem; remark: listed apart in the source
# Description: Partition coefficient (logP)
SMILES,logP [1],Log Phep [2],logP [3]
CC(=O)Nc1ccccc1F,0.96,-0.69,0.96
NC(=O)c1ccccc1F,0.64,-1.47,0.5
O=C1N[C@H](Cc2ccc(O)cc2)C(=O)N[C@H]1Cc1c[nH]c2ccccc12,1.05,< -3,2.19
CC(=O)Nc1ccc(F)cc1,1.47,-1.57,1.61
NC(=O)c1ccc(F)cc1,0.96,-2.34,1
O=C1N[C@@H](Cc2ccccc2)C(=O)N[C@H]1Cc1ccccc1,1.59,< -3,2.86
CC(=O)Nc1ccccc1 [ACETANILIDE],,-1.54,
NC(=O)c1ccccc1 [BENZAMIDE],,-2.45,
O=[N+]([O-])c1ccccc1O [NITROPHENOLATE],1.68,1.04,1.85
O=[N+]([O-])c1ccc(O)cc1 [P-NITROPHENOL],1.77,-2.11,1.85
Oc1ccccc1 [PHENOL],,-0.82,
